The numbers were not newly measured in patent US8956592B2, “Oral care compositions” (Colgate-Palmolive Company, priority 2010, dated 2015), which cites them from elsewhere.

The data set concerns S. mutans, F. nucleatum, V. parvula, A. naslundii, P. gingivitis. The settings on record: in vitro tests.
As for `CCCc1ccc(O)c(-c2cc(CCC)ccc2O)c1` [tetrahydromagnolol, 5,5′-dipropylbiphenyl-2,2′-diol], the “bactericidal properties against representative oral bacteria” value is reported as “bactericidal properties”.
Turning to `C=CCc1ccc(O)c(-c2cc(CC=C)ccc2O)c1` [magnolol], the “bactericidal properties against representative oral bacteria” value was “bactericidal properties”.
Turning to `C=CCc1ccc(O)c(-c2ccc(O)c(CC=C)c2)c1` [honokiol], the “bactericidal properties against representative oral bacteria” value is recorded as “bactericidal properties”.
Consider `CCCc1ccc(O)c(-c2ccc(O)c(CCC)c2)c1` [tetrahydrohonokiol, 3′,5-dipropylbiphenyl-2,4′-diol], for which the “bactericidal properties against representative oral bacteria” value was “bactericidal properties”.
